These results are taken from patent US20160082109A1, “COPOLYMER AND NANOPARTICLES OBTAINED THEREFROM FOR DRUG DELIVERY” (FONDAZIONE ISTITUTO ITALIANO DI TECNOLOGIA, priority 2013, published 2016).

One data set deals with bEND.3 cells. Kind of data set: Confocal microscopy of nanoparticle internalization and RhB delivery. It counts as cell-based, mice. To be noted: 6 h; nanoparticles 10 μg/ml, free RhB 113 ng/ml. How it is done:
Immortalized endothelial cells of mice, bEND.3 (American Type Culture Collection, Manassas, Va., USA) were cultivated in a DMEM medium with high levels of glucose in the presence of 10% of FBS, L-glutamine 2 mM, 1000 U/ml penicillin and 1 mg/ml of streptomycin. The cells split from 2 to 20 times were kept in a humidified incubator for cell cultures at 37° C. and 5%, CO2. This cell line was chosen because it is a suitable model for providing an endothelial barrier. […] The free rhodamine (113 ng/ml, the same quantity of rhodamine administered with the nanoparticles), was used as negative control for the absorption test for nanoparticles loaded with rhodamine B. […] Lysotracker-red-[…] 50 nM was added to mark the lysosomes and verify the intracellular localization of the nanoparticles. To understand the release potential by the nanoparticles, the internalization of nanoparticles loaded with RhB by bEND.3 cells was compared with the detection of fluorescent RhB not loaded on nanoparticles (FIGS. 15a and 15b respectively).

Data set [1] is classed as physicochemical. On the procedure:
The tests were conducted on 2±0.3 mg of polymer, placed in polypropyplene vials filled with 1 ml of deionized H2O and kept in a thermostatic bath at 37° C. for 33 days. At regular intervals the samples were withdrawn, the degradation medium was separated for evaluation of the pH while the degraded polymers were dried in a ventilated stove at 50° C. for 3 h and then analysed by gel permeation chromatography (GPC).
The pH measurements were conducted on the degradation means (deionized H2O) after pre-set times. In particular, the degradation means were withdrawn from the vials containing the polymer, prepared as reported in example 1, during the degradation tests in the previous example and the measurement was performed using a pH-meter on the samples just taken at a temperature of 37° C.

On to `CCN(CC)c1ccc2c(-c3ccccc3C(=O)O)c3ccc(=[N+](CC)CC)cc-3oc2c1.[Cl-]` [Free RhB, rhodamine B], for which, in the data set on bEND.3 cells, the “RhB internalization in cells” value was “not observed”.

polycaprolactone [PCL]: the “pH of the degradation means (lower values / end of the test)” value in data set [1] is “comparable”.
